Laboratory results taken from patent publication US12521439B2, “Methods and materials for modulating Nrf2 pathway” (The General Hospital Corporation, priority 2019, dated 2026).
“Also recorded” adds a separate entry of the source. Structures can show the parent of a compound that is named as a salt.

Legend:
ARE (Nrf2 pathway) = assay: ARE-Gluc luciferase reporter (normalized to SV40-Vluc); format: cell-based, human; settings: for ARE activity: U87, CINN 100, FUM 50 μM, SULF 5 μM, FIG. 12C
Source text: DNA expression constructs: ARE reporter was designed and generated based on our previously published reporter for monitoring of the transcription factor Nuclear Factor Kappa B (NFkB). NFkB TRE elements were removed and replaced with four copies of the ARE enhancer sequence. This reporter consists of a CSCW lentivirus vector in which we have introduced two copies of the 1.2 kb chicken beta-globin (HS4) insulator elements, a TATA box acting as a minimal promoter upstream of the secreted Gaussia luciferase (Gluc). pcDNA3-HA2-Keap1 (Addgene plasmid #21556) and pcDNA3-HA2-Keap1 delta BTB (Addgene plasmid #21593) were a gift from Yue Xiong^2. pHAGE DN Cullin 3 (DN-CUL3) was a gift from Stephen Elledge (Addgene plasmid #41913). Constructs expressing constitutively active Gluc, Firefly luciferase (Fluc) and Vargula luciferase (Vluc) were previously describe. MISSION shRNA Bacterial Glycerol Stocks for Keap1 as well as a non-target shRNA were obtained from Sigma. Transfection of plasmid DNA was performed using Lipofectamine 2000 (Invitrogen) as per manufacturer's guidelines. Lentivirus packaging and titration was performed in 293T cells by the MGH viral vector core facility following standard protocols. Keap1 mutant C151S plasmid was kindly provided by Dr. Wooyoung Hur.
Luciferase assay: Coelenterazine (20 μM; Nanolight), The Gluc substrate was added to a 25 μL aliquot of conditioned medium and photon counts were measured using a luminometer. Similarly, the secreted Vluc activity was measured by adding its substrate vargulin (5 ng/mL; Nanolight). Cells stably expressing Gluc under the ARE enhancer sequence and Vluc under the constitutively active SV40 minimal promoter were used to determine the ARE reporter activity. The normalized Gluc/Vluc ratio was used as a marker for ARE activation.

U87 glioma cells = assay: Cell viability (CellTiter-Glo), U87; format: cell-based, human; settings: for U87 cell viability: same doses as ARE test, FIG. 12D
Description: Cell culture: MDA-MB-231 and U87 (U87-MG) cells were obtained from the American Type Culture Collection (ATCC). 293T human embryonic kidney fibroblasts were provided by Dr. Xandra Breakefield (Massachusetts General Hospital). All three cell lines were grown in Dulbecco's modified Eagle medium supplemented with 10% fetal bovine serum (Gemini Bio-products), 100 U penicillin, and 0.1 mg/mL streptomycin (Sigma). All cells were maintained at 37° C. in a humidified 5% CO2 incubator. GSCs were obtained from tumor tissues of GBM patients following surgical resection, under approval from the corresponding Institutional Review Board. These cells have been previously characterized (ref. 37-39) and were maintained in culture as neurospheres in Neurobasal medium (Gibco) supplemented with heparin (2 μg/mL; Sigma) and recombinant EGF (20 ng/mL) and bFGF-2 (10 ng/mL; Peprotech). Human Astrocytes were obtained from ScienCell and cultured in Astrocytes Medium (ScienCell)
(§1) Cell viability: Cells were plated in 96-well plates and treated with the corresponding compounds. Cell viability was measured by adding 25 μl/well of CellTiter-Glo (Promega) followed by 10 minutes incubation and transfer to a white 96-well plate. Bioluminescence was quantified using Synergy HTX multimode reader (Biotek).

[1] = Solubility in aqueous media; format: physicochemical
BRD4 [2] = target: T1, BRD4 (Homo sapiens, UniProt O60885); assay: BRD4 degradation in breast cancer cells; format: cell-based; set-up: endogenous in cells; settings: FIG. 16
Description: (§2) Immunoblotting and Immunoprecipitation analysis: Antibodies against PDI, GAPDH, HA-tag, Ubiquitin, Keap1 and beta-actin (Cell Signaling) as well as secondary Horseradish peroxidase (HRP) conjugated antibodies: sheep anti-mouse IgG-HRP and donkey antirabbit IgG-HRP (Amersham Pharmacia Biotech) were used in this study. For protein expression analysis, cells were lysed in RIPA buffer (150 mM NaCl, 50 mM TRIS, pH 8.0, 1% NP-40, 0.5% deoxycholate, 0.1% SDS) supplemented with 1× protease inhibitors cocktail (Roche). Proteins were quantified using a Bradford protein determination assay (Bio-Rad) followed by electrophoresis in 10% NuPAGE Bis-Tris gels (Life Technologies) and transfer to nitrocellulose membranes (Bio-Rad). Membranes were incubated overnight with antibodies in 1-5% non-fat milk powder in PBS/0.5% TWEEN. Proteins were detected with SuperSignal West Pico Chemiluminescent Substrate (Pierce). For immunoprecipitation assays, cells were lysed in RIPA buffer supplemented with protease inhibitors and 2 mM N-ethylmaleimide. Cell lysates were pre-cleared with protein A agarose beads (Cell Signaling) and incubated with anti-HA antibody with gentle rocking overnight at 4° C. followed by incubation with protein A agarose beads and subsequent washing and elution steps. Electrophoresis, transfer and immunoblot analysis was performed as described above.

BRD4 [3] = target: T1, BRD4; assay: OBT-JQ1 PROTAC mechanism (proteasome block, Keap1/CUL3 knockdown); format: cell-based; set-up: endogenous in cells
Description: as §2

cancer cells = assay: Cancer cell death with OBT, JQ1, OBT-JQ1; format: cell-based; settings: FIG. 23
Description: as §1

BRD4 [4] = target: T1, BRD4; assay: BRD4 degradation in glioma cells; format: cell-based; set-up: endogenous in cells; settings: FIG. 15
Description: as §2

BRD4 [5] = target: T2, BRD4 (Mus musculus, UniProt Q9ESU6); assay: BRD4 degradation in mouse glioma model in vivo (Western blotting); set-up: species or system mice; settings: CT2A glioma; intratumoral, intravenous and intranasal routes; 24 hrs after last injection
T2 construct: CT2A glioma cells expressing mCherry fluorescent protein were implanted in the brain of mice; from tissue; host or cells: CT2A glioma tumour removed from mouse brain
Description: CT2A glioma cells expressing mCherry fluorescent protein were implanted in the brain of mice and 2 weeks later, once tumor reached a significant size, mice were injected with 0.7 mg/kg body weight of OBT-JQ1 using different injection routes (1) direct intratumoral injection (single injection), intravenously (once/day over 3 days) and intranasally (once/day over 3 days, an injection route that typically bypasses the blood-brain barrier). 24 hrs after the last injection, brains were removed and the tumor was lysed and analyzed by Western blotting for BRD4 and mCherry and actin loading controls.

BRD4 [6] = target: T1, BRD4; assay: BRD4 degradation in patient-derived breast cancer cells; format: cell-based; set-up: endogenous in cells; host or cells: patient-derived glioma cells; patient-derived breast cancer cells; settings: FIG. 18
Description: as §2

BRD4 [7] = target: T1, BRD4; assay: BRD4 degradation in patient-derived glioma cells; format: cell-based; set-up: endogenous in cells; host or cells: patient-derived glioma cells; patient-derived breast cancer cells; settings: FIG. 17
Description: as §2

For C[S+]([O-])CCCCN=C=S (stereo not drawn) [sulforaphane], the ARE activity (ARE (Nrf2 pathway)) was “increased ARE activity” and the U87 cell viability (U87 glioma cells) was “moderate decrease”.

With CCOC(=O)/C=C/C(=O)OCC [diethyl fumarate] the ARE activity (ARE (Nrf2 pathway)) was “increased ARE activity” and the U87 cell viability (U87 glioma cells) was “moderate decrease”.

With COc1cc(O)c(O)cc1/C=C/C(SCCO)c1ccccc1 (stereo not drawn) [AF20b, (E)-4-(3-((2-hydroxyethyl)thio)-3-phenylprop-1-en-1-yl)-5-methoxybenzene-1,2-diol] the “solubility compared to OBT” value [1] was “overcome the limited solubility of OBT”.

With COc1cc(O)c(O)cc1C(/C=C/c1ccccc1)SCCO (stereo not drawn) [AF20a, (E)-4-(1-((2-hydroxyethyl)thio)-3-phenylallyl)-5-methoxybenzene-1,2-diol] the “solubility compared to OBT” value [1] was “overcome the limited solubility of OBT”.

In the case of COC(=O)[C@]12CCC(C)(C)C[C@H]1[C@H]1C(=O)C=C3[C@@]4(C)C=C(C#N)C(=O)C(C)(C)[C@@H]4CC[C@@]3(C)[C@]1(C)CC2 [CDDO-Me, 2-cyano-3,12-dioxoolean-1,9-dien-28-oic acid-methyl ester], the ARE-Gluc reporter activity (ARE (Nrf2 pathway); U87 and MDA-MB-231 cells, FIG. 12A) is reported as “increased reporter activity” and the cell viability (U87 glioma cells; higher doses, U87 cells, FIG. 12B) is reported as “marked decrease”.

In the case of COC1=CC(=O)C(OCC(=O)NCCCOCCOCCOCCCNC(=O)CC2N=C(c3ccc(Cl)cc3)c3c(sc(C)c3C)-n3c(C)nnc32)=C/C1=C/C=C/c1ccccc1 (stereo not drawn) [OBT-JQ1, 2-(4-(4-chlorophenyl)-2,3,9-trimethyl-6H-thieno[3,2-f][1,2,4]triazolo[4,3-a][1,4]diazepin-6-yl)-N-(1-(((Z)-4-methoxy-6-oxo-3-((E)-3-phenylallylidene)cyclohexa-1,4-dien-1-yl)oxy)-2-oxo-7,10,13-trioxa-3-azahexadecan-16-yl)acetamide], the BRD4 degradation (BRD4 [2]) is reported as “promotes targeted degradation of BRD4”, the “effect of OBT-JQ1 when proteasome is blocked” value (BRD4 [3]; FIG. 20) is reported as “reverses the effect” and the “PROTAC activity in Keap1 and CuL3 knockdown” value (BRD4 [3]; FIG. 21) is reported as “retains PROTAC activity”. For the same molecule, the “induced cell death in presence of antioxidant NAC” value (cancer cells) was “not protected”, the BRD4 degradation (BRD4 [4]) was “promotes targeted degradation of BRD4” and the “BRD4 degradation in brain tumors” value (BRD4 [5]) was “induces BRD4 degradation; also recorded: efficient BRD4 degradation”. For the same molecule, the BRD4 degradation (BRD4 [6]) was “promotes targeted degradation of BRD4” and the BRD4 degradation (BRD4 [7]) was “promotes targeted degradation of BRD4”.

In the case of O=CC=Cc1ccccc1 [cinnamaldehyde], the ARE activity (ARE (Nrf2 pathway)) is reported as “increased ARE activity” and the U87 cell viability (U87 glioma cells) is reported as “moderate decrease”.
